Source: PMC5300040 (Environmental Science & Technology, 2016)
Like-named read-outs stand apart in the source and are kept apart here.

Experiments:
[1] = test system: liver microsomes from rats, dogs, guinea pigs, hamsters, monkeys and rabbits; type: in vitro ADME; details: for formation of monohydroxylated metabolite, GC–MS: all microsomal preparations investigated; for status of metabolite in incubations with liver microsomes of different species: dogs, guinea pigs, hamsters, monkeys, rabbits, all incubations
[2] = test system: liver microsomes from Cynomolgus monkeys (male); type: in vitro ADME; details: monkey liver microsomes, compared with other liver microsomes
[3] = test system: liver microsomes prepared from male Sprague–Dawley rats; type: in vitro ADME, rat; details: for metabolite detection by GC–MS: 50 μM parent PCB, 2 h, 37 °C; for relative level of dihydroxylated metabolite: all rat liver microsomal preparations except PB-pretreated rats, GC-μECD
[4] = Racemization of OH-PCB metabolites; type: physicochemical; details: CD column, GC-μECD; 300 °C for 2 h; methylated derivatives
[5] = test system: liver microsomes from untreated beagle dogs (female); type: in vitro ADME; details: female dog liver microsomes; 50 μM parent PCB, 2 h, 37 °C
[6] = test system: liver microsomes from golden Syrian hamsters (male); type: in vitro ADME; details: male hamster liver microsomes; 50 μM parent PCB, 2 h, 37 °C
recombinant rat CYP2B1 = details: cited from earlier work
dog CYP2B11 = details: cited from earlier work
[7] = microsomes from phenobarbital (PB) pretreated rats
[8] = microsomes from isoniazid (INH) pretreated rats

| Compound | formation of monohydroxylated metabolite, GC–MS [1] | status of metabolite in incubations with liver microsomes of different species [1] | metabolite detection by GC–MS [3, 7] | EF after racemization [4] | relative level of dihydroxylated metabolite [3] | metabolite detection by GC–MS [3, 8] | further results |
| --- | --- | --- | --- | --- | --- | --- | --- |
| Oc1ccc(Cl)c(-c2ccc(Cl)cc2Cl)c1Cl [OH-PCB 51, 2,2′,4,6′-tetrachlorobiphenyl-3′-ol] | formed | major metabolite | major metabolite | 0.46 ± 0.01 |  |  | rank order of EF values across species ([1]; EF = area E1/(area E1 + area E2), Chirasil-Dex column): monkey > rabbit ∼ guinea pig > hamster > rat > dog; extent of enantiomeric enrichment (EF) [2]: near racemic; extent of enantiomeric enrichment, comparison of congeners ([3]; incubations with rat liver microsomes): more pronounced enantiomeric enrichment compared to OH-PCB 102 |
| Oc1cc(Cl)c(-c2cc(Cl)c(Cl)cc2Cl)c(Cl)c1O [diOH-PCB 102, 3′,4′-dihydroxy-2,2′,4,5,6′-pentachlorobiphenyl] |  |  | formation |  | minor metabolites | formed | metabolite detection by GC–MS [5]: formed; metabolite detection by GC–MS [6]: formed; metabolite detection by GC–MS ([3]; microsomes from corn oil (CO) treated rats): formed |
| Oc1cc(Cl)c(Cl)c(-c2c(Cl)ccc(Cl)c2Cl)c1Cl [5-OH-PCB 136, 2,2′,3,3′,6,6′-hexachlorobiphenyl-5-ol] |  |  |  |  |  |  | metabolite formed (recombinant rat CYP2B1): 4,5-dihydroxylated PCB 136 metabolite; metabolite formed (dog CYP2B11): 4,5-dihydroxylated PCB 136 metabolite |
| Oc1cc(Cl)c(-c2ccc(Cl)cc2Cl)c(Cl)c1O [diOH-PCB 51, 3′,4′-dihydroxy-2,2′,4,6′-tetrachlorobiphenyl] |  |  | minor |  | minor metabolites | low levels |  |
| Oc1ccc(Cl)c(-c2cc(Cl)c(Cl)cc2Cl)c1Cl [OH-PCB 102, 2,2′,4,5,6′-pentachlorobiphenyl-3′-ol] | detected | major metabolite | major metabolite | 0.49 ± 0.01 |  |  |  |
